Measurements published in the supplement of paper PMC10307832.

Assays:
Test in all cases: relative viability (nuclei count vs DMSO), 5 days (fraction); higher = more cells survive
[1] = compound: C1COCCN1C2=NC(=NC3=C2OC4=C3C=CC=N4)C5=CC(=CC=C5)NC(=O)C6=CN=C(C=C6)N + CC(C)C[C@H](NC(=O)[C@H](Cc1ccccc1)NC(=O)c1cnccn1)B(O)O [Bortezomib] (partner 0.002 µM)
Procedure, shortened: (§1)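 After 5 days of treatment, lung cancer cells in 1536-well plates were fixed and stained in a single step (final 0.05% Triton X-100, 1% formaldehyde, 1 ug/ml Hoechst) and their nuclei counted on 4× images. Treatment had been applied by pin tool the day after seeding as one drug alone or as a fixed anchor-drug dose with five library-drug doses (not always all listed) in √10 steps. Relative viability is the nuclei count of treated wells divided by that of vehicle wells, and values are medians of duplicate plates.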

[2] = compound: CN1CCC(CNc2ccc3ncc(-c4cccc(OC(F)(F)F)c4)n3n2)CC1 [SGI-1776] + Cc1nc(Nc2ncc(C(=O)Nc3c(C)cccc3Cl)s2)cc(N2CCN(CCO)CC2)n1 [Dasatinib] (partner 0.075 µM)
Procedure, shortened: as §1

[3] = compound: CN1CCC(CNc2ccc3ncc(-c4cccc(OC(F)(F)F)c4)n3n2)CC1 [SGI-1776] + C[C@@H](Oc1cc(-c2cnn(C3CCNCC3)c2)cnc1N)c1c(Cl)ccc(F)c1Cl [Crizotinib] (partner 1 µM)
Procedure, shortened: as §1

[4] = compound: CN1CCC(CNc2ccc3ncc(-c4cccc(OC(F)(F)F)c4)n3n2)CC1 [SGI-1776] + CC(C)C[C@H](NC(=O)[C@H](Cc1ccccc1)NC(=O)c1cnccn1)B(O)O [Bortezomib] (partner 0.002 µM)
Procedure, shortened: as §1

| Cell Line | relative viability ([1]; first compound 0.02 µM) | relative viability ([1]; first compound 0.06325 µM) | relative viability ([1]; first compound 0.2 µM) | relative viability ([1]; first compound 0.6325 µM) | relative viability ([1]; first compound 2 µM) | relative viability ([2]; first compound 0.08 µM) | relative viability ([2]; first compound 0.8 µM) | relative viability ([2]; first compound 2.53 µM) | relative viability ([2]; first compound 8 µM) | relative viability ([3]; first compound 0.08 µM) | relative viability ([3]; first compound 0.8 µM) | relative viability ([3]; first compound 2.53 µM) | relative viability ([3]; first compound 8 µM) | relative viability ([4]; first compound 0.08 µM) | relative viability ([4]; first compound 0.8 µM) | relative viability ([4]; first compound 2.53 µM) | relative viability ([4]; first compound 8 µM) |
| --- | --- | --- | --- | --- | --- | --- | --- | --- | --- | --- | --- | --- | --- | --- | --- | --- | --- |
| NCI-H647 | 1.02 | 1.47 | 0.983 | 0.862 | 0.402 | 0.188 | 0.184 | 0.111 | 0.117 | 1.16 | 0.842 | 0.992 | 0.291 | 1.24 | 0.964 | 0.888 | 0.837 |
| SK-LU-1 | 1.31 | 0.998 | 1.02 | 1.14 | 0.63 | 0.171 | 0.183 | 0.169 | 0.116 | 1.04 | 0.833 | 0.756 | 0.352 | 1.28 | 1.31 | 1.52 | 0.807 |
| NCI-H441 | 0.342 | 0.638 | 0.565 | 0.648 | 0.274 | 0.633 | 0.625 | 0.539 | 0.55 | 0.701 | 0.54 | 0.731 | 0.61 | 0.376 | 0.443 | 0.529 | 0.332 |
| COR-L 105 | 0.655 | 0.872 | 0.657 | 0.66 | 0.474 | 0.343 | 0.323 | 0.284 | 0.254 | 1.03 | 0.717 | 0.464 | 0.287 | 0.929 | 0.833 | 0.587 | 0.282 |
| NCI-H2009 | 0.977 | 1.11 | 0.969 | 0.977 | 0.727 | 0.373 | 0.291 | 0.231 | 0.15 | 1.04 | 1.02 | 1.07 | 0.675 | 1.03 | 1.02 | 0.991 | 0.733 |
| NCI-H1563 | 0.883 | 0.81 | 0.84 | 0.665 | 0.589 | 0.446 | 0.474 | 0.457 | 0.453 | 0.833 | 0.888 | 0.906 | 0.785 | 0.934 | 0.849 | 0.847 | 0.692 |
| PC-14 | 0.877 | 1.04 | 0.835 | 0.822 | 0.375 | 0.267 | 0.256 | 0.0958 | 0.0261 | 0.889 | 0.895 | 0.96 | 0.79 | 0.846 | 0.915 | 0.99 | 0.566 |
| NCI-H1703 | 0.229 | 0.278 | 0.249 | 0.267 | 0.236 |  |  |  |  | 1.17 | 0.521 | 0.272 | 0.124 | 0.328 | 0.407 | 0.272 | 0.131 |
| NCI-H1944 |  |  |  |  |  | 0.223 | 0.2 | 0.223 | 0.173 | 1.1 | 0.956 | 1.03 | 0.867 |  |  |  |  |
| NCI-H2085 | 1.02 | 1.1 | 1.05 | 0.943 | 0.769 | 0.248 | 0.264 | 0.243 | 0.201 | 0.858 | 0.767 | 0.853 | 0.71 | 1.14 | 1.16 | 1 | 0.922 |
